Results from patent US20060069021A1, “Compositions and methods for intranasal administration of inactive analogs of PTH or inactivated preparations of PTH or PTH analogs” (Nastech Pharmaceutical Company Inc., priority 2004, published 2006).
Entries after “also recorded” stand apart in the source; their conditions may differ. Read-outs that look alike come from different tables or passages of the source. Ends that are not written are not given here.

Tests used:
[1] = system: ciliary motility; conditions: cited from earlier work
[2] = rats, intraduodenal, with 1% (w/v) saline dispersion of polycarbophil; cited from earlier work
[3] = system: aminopeptidases; conditions: cited from earlier work
[4] = aqueous solution at physiologic pH; cited from earlier work
[5] = system: ovariectomized rat model; conditions: cited from earlier work
[6] = system: Type II collagen production by human chondrocytes; assay: Cartilage growth model: human chondrocytes in alginate beads, type II collagen ELISA; format: cell-based
Description: A. Approximately 3 million human chondrocyte cells (Cell Applications, Inc., San Diego, Calif.) encapsulated in alginate beads were received in 25 mL total volume of re-differentiated medium. Human chondrocytes in alginate beads produce their phenotypic markers such as aggrecan and type II collagen unlike in monolayer culture where chondrocytes lose their phenotypic characteristics and de-differentiate to fibroblast-like cells. Alginate based cell system was pursued to assess type II collagen expression as result of PTH dosing and therefore indication of any cartilage growth.
B. The cell-containing alginate bead suspension was transferred from cell culture flask to 50 mL conical tubes. A volume of 500 μL (˜62,500 cells per well) suspension was dispensed per well in 24-well plates. Samples were added to each well and final volume was brought to one milliliter with appropriate growth media. Controls included cells treated with re-differentiated media as positive control (Cell Applications, Inc., San Diego, Calif.), cells treated with chondrocyte growth media (Cell Applications, Inc., San Diego, Calif.) and basal media (Cell Applications, Inc., San Diego, Calif.) as negative controls.
C. Plates were swirled gently to allow homogenous mixture of each sample. Plates were placed in 37° C., 5% CO2 incubator. Human chondrocytes were grown for up to 12 days on longer. Appropriate growth media were replaced every second or third day. Alginate beads were prepared for type II collagen extraction on the last day of the experiment and extracted collagen was quantified using Native Type II Collagen Detection Kit (Chondrex Inc., Redmond Wash.). Pictures of cells immediately following the samples application and at several time points during the course of experiment were taken using the Olympus CK40 microscope and Nikon Cool Pix 4500 digital camera.
D. A capture ELISA kit (Native Type II Collagen Detection Kit, Chondrex Inc.) was used to measure native type II collagen. For measuring glycosaminoglycans, the kit used was Blyscan Sulfated Glycosaminoglycan Assay kit (Accurate Chemical & Scientific Corp.).
Next, the alginate-based cell system (cartilage growth model; refer to Example 2) was used to determine whether PTH dosing could stimulate chondrocytes to produce cartilage. […] Type II collagen is a major component of the extracelluar matrix of nasal cartilage and therefore was used as a molecular marker for cartilage growth in this assay.
The cell-containing alginate beads were incubated in the presence of various test solutions for 12 days at 37° C., 5% CO2. After the incubation, the alginate beads were processed using an extraction method in order to quantify the production of type II collagen.

[7] = anesthetized rats, cited from earlier work
[8] = system: human chondrocyte cell monolayer; assay: Cell proliferation model: human chondrocyte monolayer, MTT assay; format: cell-based; conditions: MTT at t=0 and after 4 days at 37° C./5% CO2
Description: A. Chondrocyte monolayers (Cell Applications, Inc., San Diego, Calif.) derived from normal human cartilage were adhered on to a 24-well plate and shipped following the first doubling. Approximately 16000 cells per well were expected at the time the cells were received. Two plates were treated identically with PTH and appropriate control samples. Controls included cells treated with chondrocyte growth media for positive control (Cell Applications, Inc., San Diego, Calif.) and cells treated with basal media for negative control (Cell Applications, Inc., San Diego, Calif.).
B. After the cells are treated, one of the two plates was analyzed for cell viability (t=0 sample). The second plate was placed at 37° C., 5% CO2 incubator for 4 days, after which the plates were analyzed using the MTT assay.
C. MTT is a cell-permeable tetrazolium salt which is reduced by mitochondrial dehydrogenase activity to an insoluble colored formazan by viable cells with intact mitochondrial function or by nonmitochondrial NAD(P)H dehydrogenase activity from cells capable of generating a respiratory burst. […] We have employed a MTT reagent kit prepared by MatTek Corp for their units as in indicator of cell proliferation.
A human chondrocyte cell monolayer model was employed to examine cell proliferation (refer to Example 2). […]

For “2-alkyl-4-hydroxyquinolines [pyo compound]”, the “concentration producing ciliostasis / inhibiting ciliary motility” value [1] is given as 50 µg/mL.

In the case of “9-desglycinamide, 8-arginine vasopressin”, the “increase of bioavailability compared to aqueous solution without polymer” value [2] is listed as 3-5 fold.

In the case of `CC(C)CC(N)B(O)O` (stereo not drawn) [boro-leucine], the “effectiveness in enzyme inhibition relative to bestatin” value [3] is listed as “more than 100 times” and the “effectiveness in enzyme inhibition relative to puromycin” value [3] is listed as “more than 1,000 times”.

In the case of `CCN(CC)/[N+]([O-])=N/O.CCNCC` [diethylamine/NO], the “rate (time) of NO release” value [4] is listed as < 3 min.

In the case of `NCCN(CCN)/[N+]([O-])=N/O` [diethylenetriamine/NO (DETANO), diethylenetriamine/NO], the “rate (time) of NO release” value [4] is given as “approximately 20 hours”.

For “Ser Val Ser Glu Ile Gln Leu Met His Asn Leu Gly Lys His Leu Asn Ser Met Glu Arg Val Glu Trp Leu Arg Lys Lys Leu Gln Asp Val-NH2 (SVSEIQLMHNLGKHLNSMERVEWLRKKLQDV-NH2) [hPTH-(1-31)-NH2]”, the “restoration of bone loss” value [5] is given as “fully active”.

With calcitonin the “type II collagen production” value ([6]; 20 μg calcitonin) was “no effect” and the “type II collagen production” value ([6]; 200 μg calcitonin) was “no effect”.

For “human growth hormone: human growth hormone given nasally with or without N-acetyl-L-cysteine”, the “nasal bioavailability of human growth hormone” value ([7]; with N-acetyl-L-cysteine (ACS)) is listed as 12.2% and the “nasal bioavailability of human growth hormone” value ([7]; without N-acetyl-L-cysteine) is listed as 7.5%.

In the case of insulin-like growth factor I [IGF-I], the “type II collagen production” value ([6]; 5 μg IGF-I (positive control)) is reported as “greater than 1.2 pg per culture”.

B1: PTH: Parathyroid hormone peptide tested in Example 4; which form (1-84 or 1-34) is not stated (peptide, UniProt P01270 32-115, looked up)
Parathyroid hormone: SVSEIQLMHNLGKHLNSMERVEWLRKKLQDVHNFVALGAPLAPRDAGSQRPRKKEDNVLVESHEKSLGEADKADVNVLTKAKSQ
modifications: Parathyroid hormone
In the case of B1, the “type II collagen production” value ([6]; 20 μg PTH in citrate buffer, 12 days at 37° C., 5% CO2) is reported as “did not induce a substantial production of type II collagen”, the “type II collagen production” value ([6]; 20 μg PTH with permeation enhancers, 12 days) is reported as “did not induce a substantial production of type II collagen” and the “type II collagen production” value ([6]; 200 μg PTH in simple formulation, 12 days) is reported as “significant increase in type II collagen; also recorded: modest amounts of type II collagen production”. The “type II collagen production” value ([6]; high concentration of PTH (200 μg) with permeation enhancers, 12 days) was “essentially no production of type II collagen; also recorded: did not induce any cartilage growth”, the “chondrocyte proliferation (MTT assay)” value ([8]; PTH in simple formulation (citrate buffer)) was “did not stimulate chondrocyte proliferation” and the “chondrocyte proliferation (MTT assay)” value ([8]; PTH with permeation enhancers of Table 2) was “did not stimulate chondrocyte proliferation”.
